# Assays:
# [1] = molecular target: T1, Prostaglandin E2 receptor EP1 subtype (Homo sapiens, UniProt P34995); assay: Binding affinity to EP1 receptor
# T1 sequence (P34995 whole entry): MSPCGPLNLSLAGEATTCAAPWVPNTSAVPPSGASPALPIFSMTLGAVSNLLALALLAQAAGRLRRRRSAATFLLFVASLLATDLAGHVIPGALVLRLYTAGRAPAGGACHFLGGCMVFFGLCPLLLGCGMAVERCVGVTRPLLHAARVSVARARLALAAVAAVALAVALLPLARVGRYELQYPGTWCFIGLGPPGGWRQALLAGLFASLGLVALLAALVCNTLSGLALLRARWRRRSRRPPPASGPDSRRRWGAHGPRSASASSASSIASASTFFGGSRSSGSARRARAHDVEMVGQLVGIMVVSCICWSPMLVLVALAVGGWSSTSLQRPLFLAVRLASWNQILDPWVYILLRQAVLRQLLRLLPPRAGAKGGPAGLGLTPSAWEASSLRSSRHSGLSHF
# [2] = molecular target: T2, Prostaglandin E2 receptor EP3 subtype (Homo sapiens, UniProt P43115); assay: Binding affinity to EP3 receptor
# T2 sequence (P43115 whole entry): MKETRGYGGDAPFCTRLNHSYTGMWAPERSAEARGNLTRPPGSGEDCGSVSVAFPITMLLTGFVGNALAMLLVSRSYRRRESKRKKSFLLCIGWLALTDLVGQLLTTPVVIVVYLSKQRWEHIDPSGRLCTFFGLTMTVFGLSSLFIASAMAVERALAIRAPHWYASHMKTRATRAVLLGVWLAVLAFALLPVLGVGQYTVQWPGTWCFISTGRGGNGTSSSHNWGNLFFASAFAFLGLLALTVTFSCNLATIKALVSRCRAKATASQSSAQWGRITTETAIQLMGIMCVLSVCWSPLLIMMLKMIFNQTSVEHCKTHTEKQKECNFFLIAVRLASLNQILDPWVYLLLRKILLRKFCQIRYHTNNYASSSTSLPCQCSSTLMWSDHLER
# [3] = molecular target: T3, Prostaglandin D2 receptor (Homo sapiens, UniProt Q13258); assay: Binding affinity to DP receptor
# T3 sequence (Q13258 whole entry): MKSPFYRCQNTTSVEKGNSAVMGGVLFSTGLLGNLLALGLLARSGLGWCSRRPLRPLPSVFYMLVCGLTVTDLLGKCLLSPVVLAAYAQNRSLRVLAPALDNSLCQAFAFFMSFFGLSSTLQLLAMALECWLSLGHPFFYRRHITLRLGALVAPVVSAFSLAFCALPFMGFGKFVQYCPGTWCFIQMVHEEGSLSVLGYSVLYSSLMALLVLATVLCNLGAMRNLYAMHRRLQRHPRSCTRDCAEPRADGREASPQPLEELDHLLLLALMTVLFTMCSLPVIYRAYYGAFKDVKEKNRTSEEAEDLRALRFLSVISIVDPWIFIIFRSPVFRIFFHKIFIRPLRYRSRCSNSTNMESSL
# [4] = molecular target: Prostaglandin F2-alpha receptor (Homo sapiens, UniProt P43088); assay: Binding affinity to FP receptor
# Chain of Prostaglandin F2-alpha receptor (P43088 whole entry): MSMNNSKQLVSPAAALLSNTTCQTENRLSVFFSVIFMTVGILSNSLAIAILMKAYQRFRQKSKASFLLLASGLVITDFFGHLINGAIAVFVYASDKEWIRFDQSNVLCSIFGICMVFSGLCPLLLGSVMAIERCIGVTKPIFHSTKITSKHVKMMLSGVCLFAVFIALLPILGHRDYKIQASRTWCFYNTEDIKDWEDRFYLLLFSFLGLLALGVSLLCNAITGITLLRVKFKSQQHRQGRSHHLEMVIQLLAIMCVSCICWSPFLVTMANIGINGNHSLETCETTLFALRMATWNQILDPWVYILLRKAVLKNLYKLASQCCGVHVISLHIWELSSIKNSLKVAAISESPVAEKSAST
# [5] = molecular target: Prostaglandin E2 receptor EP4 subtype (Homo sapiens, UniProt P35408); assay: Binding affinity to EP4 receptor
# Chain of Prostaglandin E2 receptor EP4 subtype (P35408 whole entry): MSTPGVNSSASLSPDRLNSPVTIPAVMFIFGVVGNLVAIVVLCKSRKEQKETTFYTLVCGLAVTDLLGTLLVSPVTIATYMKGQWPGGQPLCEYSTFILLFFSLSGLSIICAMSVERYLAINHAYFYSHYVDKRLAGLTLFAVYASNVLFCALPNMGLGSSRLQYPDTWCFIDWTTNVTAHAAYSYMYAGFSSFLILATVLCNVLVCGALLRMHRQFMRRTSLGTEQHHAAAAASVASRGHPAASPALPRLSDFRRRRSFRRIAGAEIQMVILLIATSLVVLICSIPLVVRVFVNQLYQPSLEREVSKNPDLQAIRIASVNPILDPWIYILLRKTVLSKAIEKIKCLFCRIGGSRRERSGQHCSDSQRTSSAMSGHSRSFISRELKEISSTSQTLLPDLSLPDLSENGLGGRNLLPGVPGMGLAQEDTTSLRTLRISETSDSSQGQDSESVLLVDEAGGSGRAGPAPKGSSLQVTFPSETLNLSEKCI
# Thromboxane A2 receptor = molecular target: T4, Thromboxane A2 receptor (Homo sapiens, UniProt P21731); assay: Binding affinity to TP receptor
# T4 sequence (P21731 whole entry): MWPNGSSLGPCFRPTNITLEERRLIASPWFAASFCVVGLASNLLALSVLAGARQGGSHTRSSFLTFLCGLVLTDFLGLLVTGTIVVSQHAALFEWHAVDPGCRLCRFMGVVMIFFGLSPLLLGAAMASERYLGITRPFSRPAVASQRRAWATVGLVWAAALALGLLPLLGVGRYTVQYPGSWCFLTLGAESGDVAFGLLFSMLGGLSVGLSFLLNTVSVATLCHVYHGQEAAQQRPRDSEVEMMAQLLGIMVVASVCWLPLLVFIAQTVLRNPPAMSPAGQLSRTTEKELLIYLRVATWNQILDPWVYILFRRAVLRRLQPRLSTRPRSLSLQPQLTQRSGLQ
# Prostacyclin receptor = Prostacyclin receptor (Homo sapiens, UniProt P43119); assay: Binding affinity to IP receptor
# Chain of Prostacyclin receptor (P43119 whole entry): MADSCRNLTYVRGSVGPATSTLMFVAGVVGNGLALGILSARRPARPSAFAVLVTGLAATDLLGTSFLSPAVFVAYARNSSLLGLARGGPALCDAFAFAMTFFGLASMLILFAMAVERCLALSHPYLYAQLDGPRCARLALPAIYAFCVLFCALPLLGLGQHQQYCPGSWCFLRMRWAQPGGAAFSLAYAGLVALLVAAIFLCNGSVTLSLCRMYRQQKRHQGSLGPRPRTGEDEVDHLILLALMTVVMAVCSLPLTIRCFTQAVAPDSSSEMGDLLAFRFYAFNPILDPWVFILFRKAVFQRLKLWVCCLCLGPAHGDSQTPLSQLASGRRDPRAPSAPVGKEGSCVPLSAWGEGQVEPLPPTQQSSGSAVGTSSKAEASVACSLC
# [6] = molecular target: Prostaglandin E2 receptor EP2 subtype (Homo sapiens, UniProt P43116); assay: Binding affinity to EP2 receptor
# Chain of Prostaglandin E2 receptor EP2 subtype (P43116 whole entry): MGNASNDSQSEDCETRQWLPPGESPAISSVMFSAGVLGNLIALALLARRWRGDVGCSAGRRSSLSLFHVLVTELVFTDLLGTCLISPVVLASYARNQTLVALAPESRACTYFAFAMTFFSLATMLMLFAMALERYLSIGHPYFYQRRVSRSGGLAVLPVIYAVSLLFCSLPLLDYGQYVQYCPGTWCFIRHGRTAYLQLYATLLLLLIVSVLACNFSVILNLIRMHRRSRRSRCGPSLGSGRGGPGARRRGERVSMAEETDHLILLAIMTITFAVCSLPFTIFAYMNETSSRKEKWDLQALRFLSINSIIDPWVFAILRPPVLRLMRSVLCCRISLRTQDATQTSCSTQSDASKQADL
# [7] = molecular target: T3, Prostaglandin D2 receptor; assay: Activity at DP receptor assessed as inhibition of PGD2-induced cAMP accumulation in platelet rich plasma; type: functional
# [8] = molecular target: T3, Prostaglandin D2 receptor; assay: Activity at DP receptor assessed as inhibition of PGD2-induced cAMP accumulation in platelet; type: functional
Compound,Ki [3],Ki (Thromboxane A2 receptor),further results
O=C(O)CC1CCCc2c1n(Cc1ccc(Cl)cc1)c1c(F)cc(F)cc21 (stereo not drawn),11 nM,1.7 nM,Ki [1]: > 7 µM; Ki [2]: > 0.3 µM; Ki [4]: > 20 µM; Ki [5]: > 2900 nM; Ki (Prostacyclin receptor): > 2 µM; Ki [6]: > 4600 nM
O=C(O)CC1CCCc2c1n(Cc1ccc(Cl)cc1)c1c([S+]([O-])Cc3ccccc3)cccc21 (stereo not drawn),3.9 nM,140 nM,–
O=C(O)CC1CCCc2c1n(Cc1ccc(Cl)cc1)c1c([S+]([O-])c3ccccc3)cccc21 (stereo not drawn),29 nM,96 nM,–
CS(=O)(=O)c1cc(Br)c2c(c1)c1c(n2Cc2ccc3ccc(Cl)cc3n2)C(CC(=O)O)CC1 (stereo not drawn),1 nM,180 nM,–
O=C(O)CC1CCCc2c1n(Cc1ccc(Cl)cc1)c1c(Br)cccc21 (stereo not drawn),2.6 nM,2.2 nM,–
O=C(O)CC1CCCc2c1n(Cc1ccc(Cl)cc1)c1ccccc21 (stereo not drawn),36 nM,2.4 nM,–
"C[S+]([O-])c1cccc2c3c(n(Cc4ccc(Cl)cc4)c12)[C@@H](CC(=O)O)CCC3 (single isomer, unassigned; 17)",1.8 nM,47 nM,–
CN(C)S(=O)(=O)c1ccc2c(c1)c1c(n2Cc2ccc(Cl)cc2)C(CC(=O)O)CC1 (stereo not drawn),1100 nM,2300 nM,–
"C[S+]([O-])c1cccc2c3c(n(Cc4ccc(Cl)cc4)c12)[C@@H](CC(=O)O)CCC3 (single isomer, unassigned; 16)",–,130 nM,–
O=C(O)CC1CCCc2c1n(Cc1ccc(Cl)cc1)c1c(C(=O)Nc3ccccc3)cccc21 (stereo not drawn),110 nM,88 nM,–
CC(C)[S+]([O-])c1cccc2c3c(n(Cc4ccc(Cl)cc4)c12)C(CC(=O)O)CCC3 (stereo not drawn),23 nM,1800 nM,–
CS(=O)(=O)c1cc(Br)c2c(c1)c1c(n2Cc2cccc(OC(F)(F)F)c2)C(CC(=O)O)CC1 (stereo not drawn),4.1 nM,260 nM,–
CC(C)c1cccc2c3c(n(Cc4ccc(Cl)cc4)c12)C(CC(=O)O)CCC3 (stereo not drawn),1.7 nM,9.1 nM,–
CS(=O)(=O)c1cccc2c3c(n(Cc4ccc(Cl)cc4)c12)C(CC(=O)O)CCC3 (stereo not drawn),1.9 nM,5.1 nM,–
C[S+]([O-])c1cccc2c3c(n(Cc4ccc(Cl)cc4)c12)C(CC(=O)O)CCC3 (stereo not drawn),2.8 nM,172 nM,–
CSc1cccc2c3c(n(Cc4ccc(Cl)cc4)c12)C(CC(=O)O)CCC3 (stereo not drawn),1 nM,2.6 nM,–
CS(=O)(=O)c1cc(Br)c2c(c1)c1c(n2Cc2ccc3sc(Cl)c(Cl)c3n2)C(CC(=O)O)CC1 (stereo not drawn),4.4 nM,220 nM,–
CC[S+]([O-])c1cccc2c3c(n(Cc4ccc(Cl)cc4)c12)C(CC(=O)O)CCC3 (stereo not drawn),4 nM,340 nM,–
O=Cc1cccc2c3c(n(Cc4ccc(Cl)cc4)c12)C(CC(=O)O)CCC3 (stereo not drawn),6.3 nM,6.6 nM,–
CN(C)C(=O)c1cccc2c3c(n(Cc4ccc(Cl)cc4)c12)C(CC(=O)O)CCC3 (stereo not drawn),28 nM,3700 nM,–
O=C(O)CC1CCCc2c1n(Cc1ccc(Cl)cc1)c1c(CO)cccc21 (stereo not drawn),16 nM,7.8 nM,–
CS(=O)(=O)c1ccc2c(c1)c1c(n2Cc2ccc(Cl)cc2)C(CC(=O)O)CCC1 (stereo not drawn),80 nM,990 nM,–

# Continued, in another order:
Ki [3],Ki (Thromboxane A2 receptor),Compound,further results
3.6 nM,520 nM,C=Cc1cc(S(C)(=O)=O)cc2c3c(n(Cc4ccc(Cl)cc4)c12)C(CC(=O)O)CC3 (stereo not drawn),–
300 nM,2100 nM,CS(=O)(=O)c1ccc2c(c1)c1c(n2Cc2ccc(Cl)cc2)C(CC(=O)O)CC1 (stereo not drawn),–
2.8 nM,330 nM,CS(=O)(=O)c1cc(C2CCCCC2)c2c(c1)c1c(n2Cc2ccc(Cl)cc2)C(CC(=O)O)CC1 (stereo not drawn),–
7.5 nM,820 nM,CC(C)(C)c1ccc(Cn2c3c(c4cc(S(C)(=O)=O)cc(Br)c42)CCC3CC(=O)O)cc1 (stereo not drawn),–
1.8 nM,7100 nM,CC(O)c1cc(S(C)(=O)=O)cc2c3c(n(Cc4ccc(Cl)cc4)c12)[C@@H](CC(=O)O)CC3 (stereo partly drawn),Ki [1]: > 20 µM; Ki [2]: > 20 µM; Ki [4]: > 20 µM; IC50 [7]: 8.6 nM; Ki [5]: > 2900 nM; IC50 [8]: 2 nM; Ki (Prostacyclin receptor): > 20 µM; Ki [6]: 390 nM
1900 nM,2700 nM,CS(=O)(=O)c1ccc(Cn2c3c(c4cc(S(C)(=O)=O)cc(Br)c42)CCC3CC(=O)O)cc1 (stereo not drawn),–
8.5 nM,16000 nM,CC(O)c1cc(S(C)(=O)=O)cc2c3c(n(Cc4ccc(Cl)cc4)c12)C(CC(=O)O)CC3 (stereo not drawn),–
4.5 nM,730 nM,CS(=O)(=O)c1cc(-c2cccs2)c2c(c1)c1c(n2Cc2ccc(Cl)cc2)C(CC(=O)O)CC1 (stereo not drawn),–
3.5 nM,760 nM,CS(=O)(=O)c1cc(Br)c2c(c1)c1c(n2Cc2cccc(Cl)c2)C(CC(=O)O)CC1 (stereo not drawn),–
2.6 nM,1200 nM,CC(=O)c1cc(S(C)(=O)=O)cc2c3c(n(Cc4ccc(Cl)cc4)c12)[C@@H](CC(=O)O)CC3,Ki [1]: > 20 µM; Ki [2]: > 20 µM; Ki [4]: > 20 µM; IC50 [7]: 7.9 nM; Ki [5]: > 20000 nM; IC50 [8]: 2 nM; Ki (Prostacyclin receptor): > 20 µM; Ki [6]: 230 nM
9.5 nM,3600 nM,CC(=O)c1cc(S(C)(=O)=O)cc2c3c(n(Cc4ccc(Cl)cc4)c12)C(CC(=O)O)CC3 (stereo not drawn),–
1.7 nM,200 nM,CS(=O)(=O)c1cc(Br)c2c(c1)c1c(n2Cc2ccc(Cl)cc2)C(CC(=O)O)CC1 (stereo not drawn),–
9.7 nM,1100 nM,CS(=O)(=O)c1cc(C#N)c2c(c1)c1c(n2Cc2ccc(Cl)cc2)C(CC(=O)O)CC1 (stereo not drawn),–
4.1 nM,100 nM,CN(C)S(=O)(=O)c1cc(Br)c2c(c1)c1c(n2Cc2ccc(Cl)cc2)C(CC(=O)O)CC1 (stereo not drawn),–

# From ChEMBL document CHEMBL1148660, “Identification of an indole series of prostaglandin D2 receptor antagonists” (Bioorg Med Chem Lett, 2006)
